# Measured values: patent US20070071783A1, “Pheromone attractants for the green mirid” (priority 2004, published 2007)
# Marks after values point to notes of the source that are not given here.
# How the values were obtained:
# Phytocoris relativus = conditions: Millar & Rice 1998; cited from earlier work
# [1] = test system: mullein bug, Campylomma verbasci; conditions: blend released at rates of 91 and 183 μL per day; Smith et al. 1991, McBrien et al. 1994; cited from earlier work
# Phytocoris californicus = conditions: Millar & Rice 1998; Millar et al. 1997; cited from earlier work
# [2] = test system: green mirid, Creontiades dilutus; assay: Field trapping bioassays: rubber septa lures in delta traps; format: in vivo; conditions: Experiment 1, soybeans, Cecil Plains; for Mean trap catch: 2 mg lure, mean ± s.e.
# Experimental: A series of trials involving blends of the major component, hexyl hexanoate and the minor component (E)-2 hexenyl hexanoate in various ratios, as coded and presented in Table 1, as well as the single components, were tested in a series of field trapping experiments. After the initial optimisation, two other components (methyl salicylate and (Z)-3 hexenyl acetate), found in both the male and female extracts, were tested by adding them to the optimised blend.
# Lures were prepared using rubber septa. Each lure was loaded with 2 mg of the blend with 10% butylated hydroxytoluene (BHT) added as an anti-oxidant. Control lures were loaded with BHT only.
# Field experiments were conducted at Cecil Plains (Qld), Narrabri, Tamworth, Mullaley and Armidale (NSW). The experimental designs were Latin Squares with treatment (pheromone blend), trap position and day as the factors. Traps were placed in a grid at intervals of 25-50 m, cleared daily, and rotated to different positions in the Latin Square designs. Delta traps made out of plastic (Corflute®) were used.
# This experiment aimed to test blends against individual components of the female sex pheromone. A 4×4 Latin square design with 4 rotation periods, 4 blend locations and 4 treatments was set up in soybeans in Cecil Plains. Traps were located 100 m from each other and cleared every day before rotation. […] They were only caught in traps baited with the blend GM1 at an average of 3.9 males per trap. All insects caught were sexed morphologically and found to be males. […]
# A 3×3 Latin Square experiment, replicated at two different sites in mung beans and one site in a slashed lucerne field was set up in Mullaley, NSW. This experiment involved blends GM2, GM12, GM13. In the mung beans at Site 1, blend type was the only significant factor (P<0.01).
# Blends GM2, GM12, GM17 and GM19 were tested in a 4×4 Latin Square experiment in lucerne at Piallamore, NSW. […] Analysis of variance on the logarithmically transformed data indicated no significant differences (P>0.05) between the blends.
# This experiment aimed at testing the effect of septa loading on trap catches. It involved the use of blend GM2 with a 2, 20 and 40 mg loading respectively. The ratio of hexyl hexanoate to (E)-2-hexenyl acetate in all blends was 5:1. The design was a 3×3 Latin Square set up at two different sites in mung beans at Mullaley, NSW. […] Trap location and day were also non significant (Table 11).
# This experiment aimed at testing the effects of methyl salicylate and (Z)-3 hexenyl acetate, identified in both male and female extracts on the optimised blend. The hypothesis was that they might increase the attractiveness of the blend. Blends GM2, GM14, GM15 and GM16 were used in a 4×4 Latin Square experiment conducted in lucerne at Piallamore, NSW. […]
# [3] = test system: green mirid, Creontiades dilutus; assay: Attract-and-kill Experiment 1: sprayed-on formulation with added insecticide (methomyl); format: in vivo; conditions: pigeon peas, Mullaley, about 2.3% volatiles in carrier, methomyl 0.5%, 5 m of row
# Source text: The trial was set up in late flowering pigeon peas near Mullaley, NSW. The pheromone components were mixed with the formulation base from Magnet®, the commercial embodiment of the compositions described in WO 02/089577, the contents of which are incorporated herein by reference.
# The plant volatile components of Magnet® were not included. The toxicant was methomyl at a concentration of 0.5% active ingredient.
# There were four treatments: • 1) Control (no pheromone components added; carrier only) • 2) 12 ml hexyl hexanoate added to 500 ml of carrier • 3) 12 ml (E)-2 hexenyl hexanoate added to 500 ml of carrier • 4) 10 ml hexyl hexanoate plus 2 ml (E)-2 hexenyl hexanoate added to 500 ml carrier
# Thus, in treatments 2-4 the final concentration of volatile pheromone components was about 2.3%. Treatment 4 had the two components in the optimum ratio as determined by trapping experiments.
# Approximately 100 ml of each mixture was applied to 5 m of row of the pigeon peas, being shaken from a plastic bottle onto the tops of the plants. There were three replicates of each treatment, with buffer zones of 20 m surrounding them. Black plastic weed mat, 90 cm wide, was placed in the furrows on both sides,of the treated rows. It was secured around the bases of the plants using clothes pegs. This was done to facilitate finding dead GM. The treated areas were searched each morning over the next three days, and any dead GM found were sexed. Two pheromone traps, using blend GM2 as previously described, were also operated near the experimental site. At the conclusion of the experiment, five replicate samples using beat sheets were taken in the vicinity of the sprayed regions.
# [4] = Day 1, standard error in brackets
Compound,Attractiveness of lures in field studies [1],"GM caught in baited traps, average [2]",Mean trap catch [2],"Mean number of female adults found (killed) [3, 4]","Mean number of male adults found (killed) [3, 4]","Mean number of nymphs found (killed) [3, 4]",Mean number of female adults found (killed) ([3]; Day 2),Mean number of male adults found (killed) ([3]; Day 2),Mean number of nymphs found (killed) ([3]; Day 2),also measured
CCCCC/C=C/COC(C)=O [(E)-2-octenyl acetate],–,–,–,–,–,–,–,–,–,Inhibition of P. relativus males (Phytocoris relativus): did not inhibit
CCCCOC(=O)CCC [butyl butyrate],inactive,–,–,–,–,–,–,–,–,–
C/C=C/COC(=O)CCC [(E)-2-butenyl butyrate],inactive,–,–,–,–,–,–,–,–,–
CCCCC/C=C/COC(=O)CCC [(E)-2-octenyl butyrate],–,–,–,–,–,–,–,–,–,Inhibition of attraction of P. californicus males to traps (Phytocoris californicus): inhibited attraction
"CCCCCCOC(=O)CCCCC [GM5, hexyl hexanoate]",–,did not attract any GM,0.0 ± 0^b,1.3 (0.3),1.3 (0.3),0.3,0,0,0,–
"CCC/C=C/COC(=O)CCCCC [GM6, (E)-2-hexenyl hexanoate]",–,did not attract any GM,0.0 ± 0^b,1.0 (1.0),3.0 (1.1),0.3 (0.3),0,1.3,0,–
